Each structure is given as a SMILES string. Where two headings read alike, the source gives them in different places.

Our source for the IC50 values is patent publication US11407736B2 (priority 2019, dated 2022).

In assay [1] the target is RIPK1 (Homo sapiens (Human), UniProt Q13546). Nature of the assay: RIPK1 ADP-Glo biochemical kinase assay. As for the experimental part: The final reaction volume was 5.0ul.
Adding 5 μl of ADP-Glo™ terminated the reaction.
(In general: In ADP-Glo the light output rises with the ADP produced.)

Assay [2] relates to U937 cells. As to the kind of experiment: U937 cell necroptosis assay (TNFa + zVAD, CellTiter-Glo). It counts as cell-based, human. The note with it: Homo sapiens. On the procedure:
(§1) In this example, U937 and L929 cells were exposed to compounds of the present disclosure and a cell necroptosis assay was conducted to evaluate the compounds' activity against human RIP1 and murine RIP1.
(§2) U937 and L929 cells were obtained from the American Type Culture Collection (Manassa, Va., USA). Both cells were maintained in logarithmic growth phase in complete RPMI 1640 media (Sigma, ST Louis, Mo., USA) supplemented with 10% fetal bovine serum (Sigma, ST Louis, Mo., USA) at 37° C. with 5% CO2. For necroptosis assay, L929 cells were plated for 18 h in 100 μL/well medium at 10K cells/well in Costar 96-well black clear-bottom plates (Fisher Scientific, Hampton, N.H., USA); U937 cells were plated on the day of the assay in 50 4/well medium containing 60 uM zVAD-fink (Lonza, Basel, Switzerland) at 50K cells/well. Medium from L929 cells were removed from the 96-well plates and replaced with 50 μL/well new medium containing 40 uM zVAD-fink. Each compound of the present disclosure evaluated in this example was serially diluted in DMSO from 2.5 mM in 4-fold dilutions, and then diluted 1:125 in complete medium. 50 μL/well 2× of the compound was then added to the cells in the plates. The cells were pre-incubated with the compound for 1 hour at 37° C. with 5% CO2 and before addition of 10 μL/well 1 1×TNFa (Peprotech, Rocky Hill, N.J., USA) to give a final concentration of 2 ng/mL for TNFa. The relative amount of necroptosis cells was determined by luminescent using a Wallac Victor2 Luminometer (PerkinElmer, Waltham, Mass., USA) and a CellTiter-Glo® Luminescent Cell Viability Reagent Assay (Promega, Madison, Wis., USA) added per manufacturer instructions after 18 hours of TNFa stimulation at 37° C. with 5% CO2. This example establishes that embodiments of the compounds described herein have unexpectedly potent activity against human RIP1 and murine RIP1, which allows their assessment in in vivo mouse models of disease.
(In general: In ATP-based viability assays light output follows the ATP content of the culture.)

Assay [3] deals with L929 cells. Nature of the assay: L929 cell necroptosis assay (TNFa + zVAD, CellTiter-Glo). Particulars: Mus musculus. It counts as cell-based, murine. As for the experimental part:
as §1
as §2, with “The cells were pre-incubated with the compound for 1 hour at 37° C. with 5% CO2 and before addition of 10 μL/well 1 1×TNFa (Peprotech, Rocky Hill, N.J., USA) to give a final concentration of 2 ng/mL for TNFa.” left out, “CO2.” for “CO2. This example establishes that embodiments of the compounds described herein have unexpectedly potent activity against human RIP1 and murine RIP1, which allows their assessment in in vivo mouse models of disease.”

[4] abbreviates: read-out: RIPK1 ADP-Glo Kinase (IC50).
[5] abbreviates: U-937, U937 cells, TNFa + zVAD, read-out: U937 Zvad TNF CTG Recovery, U937, TNFa + zVAD (IC50).
Setting [6] is: U-937, read-out: U937 Zvad TNF CTG Recovery, U937, TNFa + zVAD (IC50), U937 cells, TNFa + zVAD.
Setting [7] is: L929, L929 cells, TNFa + zVAD, read-out: L929-CTG-recovery, L929, TNFa + zVAD (IC50).

RIPK1, sequence (Q13546 whole entry, species assumed): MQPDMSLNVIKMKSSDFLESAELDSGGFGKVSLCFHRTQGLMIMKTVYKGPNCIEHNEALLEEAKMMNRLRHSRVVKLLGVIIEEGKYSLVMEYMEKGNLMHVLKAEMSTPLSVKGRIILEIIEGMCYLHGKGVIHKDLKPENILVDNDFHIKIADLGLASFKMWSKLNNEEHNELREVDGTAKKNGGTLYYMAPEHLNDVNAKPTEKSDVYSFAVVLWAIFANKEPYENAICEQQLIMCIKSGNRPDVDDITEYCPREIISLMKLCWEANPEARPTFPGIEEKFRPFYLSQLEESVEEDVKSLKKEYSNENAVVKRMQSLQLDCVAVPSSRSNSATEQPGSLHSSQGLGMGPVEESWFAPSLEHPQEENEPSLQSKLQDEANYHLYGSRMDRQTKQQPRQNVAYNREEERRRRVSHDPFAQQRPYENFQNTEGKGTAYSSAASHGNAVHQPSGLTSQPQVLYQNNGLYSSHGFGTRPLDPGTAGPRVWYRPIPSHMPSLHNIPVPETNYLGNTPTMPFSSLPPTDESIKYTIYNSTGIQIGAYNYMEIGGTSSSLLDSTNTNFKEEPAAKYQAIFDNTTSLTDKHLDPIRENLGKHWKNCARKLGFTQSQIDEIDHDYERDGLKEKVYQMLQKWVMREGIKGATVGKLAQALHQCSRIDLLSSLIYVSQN

Regarding `CN1C(=O)[C@@H](NC(=O)c2n[nH]c(Cc3ccc(F)cc3F)n2)COc2ccc(CCC(=O)NC3CC3)cc21` [Compound I-27, (S)—N-(7-(3-(cyclopropylamino)-3-oxopropyl)-5-methyl-4-oxo-2,3,4,5-tetrahydrobenzo[b][1,4]oxazepin-3-yl)-5-(2,4-difluorobenzyl)-1H-1,2,4-triazole-3-carboxamide], the values for the IC50 in assay [1] (setting [4]) and in assay [2] (setting [5]) were 0.158 µM and 0.0697 µM, respectively.

Take `CN1C(=O)[C@@H](NC(=O)c2ccc(Oc3ccccc3)cn2)COc2ccc(C#CC(C)(C)O)cc21` [Compound I-121, (S)—N-(7-(3-hydroxy-3-methylbut-1-yn-1-yl)-5-methyl-4-oxo-2,3,4,5-tetrahydrobenzo[b][1,4]oxazepin-3-yl)-5-phenoxypicolinamide]: the results for the concentration for half-maximal inhibition (IC50) in assay [1] (setting [4]) and in assay [2] (setting [5]) were 12.4 µM and 30.3 µM, respectively.

For `CN1C(=O)[C@@H](NC(=O)c2cc(Oc3ccccc3)ccn2)COc2ccc(CN3CC4(CCOCC4)C3)cc21` [Compound I-150, (S)—N-(7-((7-oxa-2-azaspiro[3.5]nonan-2-yl)methyl)-5-methyl-4-oxo-2,3,4,5-tetrahydrobenzo[b][1,4]oxazepin-3-yl)-4-phenoxypicolinamide], the half-inhibitory concentration (IC50) came out at 0.0447 µM in assay [1] and 0.0831 µM in assay [2] (setting [5]).

Take `COc1ccnc(C(=O)N[C@H]2COc3ccc(C#CC(C)(C)O)cc3N(C)C2=O)c1` [Compound I-163, (S)—N-(7-(3-hydroxy-3-methylbut-1-yn-1-yl)-5-methyl-4-oxo-2,3,4,5-tetrahydrobenzo[b][1,4]oxazepin-3-yl)-4-methoxypicolinamide]: the values for the IC50 in assay [1] (setting [4]) and in assay [2] (setting [6]) were 0.509 µM and 3.32 µM, respectively.

Take `CN1C(=O)[C@@H](NC(=O)c2cc(Oc3ccccc3)ccn2)COc2ccc(C#CC3(O)CS(=O)(=O)C3)cc21` [Compound I-209, (S)—N-(7-((3-hydroxy-1,1-dioxidothietan-3-yl)ethynyl)-5-methyl-4-oxo-2,3,4,5-tetrahydrobenzo[b][1,4]oxazepin-3-yl)-4-phenoxypicolinamide]: the results for the half-maximal inhibitory concentration (IC50) in assay [1] (setting [4]) and in assay [2] (setting [6]) were 0.106 µM and 0.0595 µM, respectively.

For the compound `CN1C(=O)[C@@H](NC(=O)c2cc(Oc3ccccc3)ccn2)COc2ccc(C#CC(=O)O)cc21` [Compound I-161, (S)-3-(5-methyl-4-oxo-3-(4-phenoxypicolinamido)-2,3,4,5-tetrahydrobenzo[b][1,4]oxazepin-7-yl)propiolic acid], the IC50 in assay [1] (setting [4]) was found to be 0.0362 µM; in assay [2] (setting [5]) it was 0.0455 µM.

`CN1C(=O)[C@@H](NC(=O)c2cc(Oc3ccc(F)cc3)ccn2)COc2ccc(C#CC3(O)CCNCC3)cc21` [Compound I-133, (S)-4-(4-fluorophenoxy)-N-(7-((4-hydroxypiperidin-4-yl)ethynyl)-5-methyl-4-oxo-2,3,4,5-tetrahydrobenzo[b][1,4]oxazepin-3-yl)picolinamide]: the IC50 in assay [1] (setting [4]) came to 0.173 µM; in assay [2] (setting [5]) it was 0.492 µM.

Turning to `CN1C(=O)[C@@H](NC(=O)c2n[nH]c(Cc3ccccc3)n2)COc2ccc(CCC(N)=O)cc21` [Compound I-31, (S)—N-(7-(3-amino-3-oxopropyl)-5-methyl-4-oxo-2,3,4,5-tetrahydrobenzo[b][1,4]oxazepin-3-yl)-5-benzyl-1H-1,2,4-triazole-3-carboxamide], the half-maximal inhibitory concentration (IC50) in assay [1] (setting [4]) stood at 0.0334 µM; in assay [2] (setting [5]), 0.0337 µM.

Regarding `CN1C(=O)[C@@H](NC(=O)c2ccc(Oc3ccc(F)cc3)cn2)COc2ccc(C#CC(C)(C)O)cc21` [Compound I-122, (S)-5-(4-fluorophenoxy)-N-(7-(3-hydroxy-3-methylbut-1-yn-1-yl)-5-methyl-4-oxo-2,3,4,5-tetrahydrobenzo[b][1,4]oxazepin-3-yl)picolinamide], the values for the IC50 in assay [1] (setting [4]) and in assay [2] (setting [5]) were 12.3 µM and 40.4 µM, respectively.

As to `COc1cccc(-c2ccnc(C(=O)N[C@H]3COc4ccc(C#CC(C)(C)O)cc4N(C)C3=O)c2)c1` [II-23, (S)—N-(7-(3-hydroxy-3-methylbut-1-yn-1-yl)-5-methyl-4-oxo-2,3,4,5-tetrahydrobenzo[b][1,4]oxazepin-3-yl)-4-(3-methoxyphenyl)picolinamide], the half-inhibitory concentration (IC50) in assay [1] (setting [4]) worked out at 1.28 µM; in assay [2] (setting [5]) it was 0.545 µM.

Regarding `CN1C(=O)[C@@H](NC(=O)c2n[nH]c(Cc3ccccc3)n2)COc2ccc(CCC(=O)Nc3ccc4[nH]ncc4c3)cc21` [Compound I-2, (S)—N-(7-(3-((1H-indazol-5-yl)amino)-3-oxopropyl)-5-methyl-4-oxo-2,3,4,5-tetrahydrobenzo[b][1,4]oxazepin-3-yl)-5-benzyl-1H-1,2,4-triazole-3-carboxamide], the figures for the half-maximal inhibitory concentration (IC50) in assay [1] (setting [4]) and in assay [2] (setting [5]) were 0.0157 µM and 0.0319 µM, respectively.

Take `COc1ccnc(C(=O)N[C@H]2COc3ccc(C#CC4(O)COC4)cc3N(C)C2=O)c1` [Compound I-162, (S)—N-(7-((3-hydroxyoxetan-3-yl)ethynyl)-5-methyl-4-oxo-2,3,4,5-tetrahydrobenzo[b][1,4]oxazepin-3-yl)-4-methoxypicolinamide]: the IC50 amounted to 0.0544 µM in assay [1] (setting [4]) and 1.66 µM in assay [2] (setting [5]).

`CN1C(=O)[C@@H](NC(=O)c2n[nH]c(Cc3ccccc3)n2)COc2ccc(CCC(=O)NC3CC3)cc21` [Compound I-13, (S)-5-benzyl-N-(7-(3-(cyclopropylamino)-3-oxopropyl)-5-methyl-4-oxo-2,3,4,5-tetrahydrobenzo[b][1,4]oxazepin-3-yl)-1H-1,2,4-triazole-3-carboxamide]: the half-inhibitory concentration (IC50) in assay [1] (setting [4]) is 0.0539 µM; in assay [2] (setting [5]) it was 0.0138 µM.

For the compound `CN1C(=O)[C@@H](NC(=O)c2n[nH]c(Cc3ccccc3)n2)COc2ccc(C#CC3(O)CCC3)cc21` [Compound I-51, (S)-5-benzyl-N-(7-((1-hydroxycyclobutyl)ethynyl)-5-methyl-4-oxo-2,3,4,5-tetrahydrobenzo[b][1,4]oxazepin-3-yl)-1H-1,2,4-triazole-3-carboxamide], the IC50 in assay [1] (setting [4]) was 0.0317 µM.

Turning to `CN1C(=O)[C@@H](NC(=O)c2n[nH]c(Cc3ccccc3)n2)COc2ccc(CCC(=O)O)cc21` [Compound I-9, (S)-3-(3-(5-benzyl-1H-1,2,4-triazole-3-carboxamido)-5-methyl-4-oxo-2,3,4,5-tetrahydrobenzo[b][1,4]oxazepin-7-yl)propanoic acid], the half-maximal inhibitory concentration (IC50) in assay [1] (setting [4]) was found to be 0.189 µM; in assay [2] (setting [5]), 0.362 µM.

With `CN1C(=O)[C@@H](NC(=O)c2cc(Oc3ccc(F)cc3)ccn2)COc2ccc(C#CC(C)(C)COC(=O)CCC(=O)O)cc21` [Compound I-170, (S)-4-((4-(3-(4-(4-fluorophenoxy)picolinamido)-5-methyl-4-oxo-2,3,4,5-tetrahydrobenzo[b][1,4]oxazepin-7-yl)-2,2-dimethylbut-3-yn-1-yl)oxy)-4-oxobutanoic acid], the results for the IC50 in assay [3] (setting [7]) and in assay [2] (setting [5]) were 1.83 µM and 0.0148 µM, respectively.

Regarding `CN1C(=O)[C@@H](NC(=O)n2cc(Cc3ccc(F)cc3F)cn2)COc2ccc(C#CC(C)(C)CO)cc21` [Compound I-239, (S)-4-(2,4-Difluorobenzyl)-N-(7-(4-hydroxy-3,3-dimethylbut-1-yn-1-yl)-5-methyl-4-oxo-2,3,4,5-tetrahydrobenzo[b][1,4]oxazepin-3-yl)-1H-pyrazole-1-carboxamide], the IC50 in assay [3] (setting [7]) was 0.218 µM; in assay [2] (setting [5]) it was 0.0088 µM.

In the case of `CN1C(=O)[C@@H](NC(=O)c2cc(Oc3ccccc3)ccn2)COc2ccc(C#CC3(F)CNC3)cc21` [Compound I-143], the IC50 in assay [3] (L929, read-out: L929-CTG-recovery, L929, TNFa + zVAD (IC50), L929 cells, TNFa + zVAD) was determined as 0.197 µM; in assay [2] (setting [6]), 0.0035 µM.

In general, IC50 refers to the concentration at which inhibition is half-maximal.
